In PubChem BioAssay (NCI) one finds TGI and GI50 data, which are given here for nine compounds.

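Compound exposure: 48 hours, 5 concentrations, 96-well plates. The concentration for 50% growth inhibition is given as GI50. The concentration for full growth arrest is given as TGI.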 Bounds are passed on as bounds.

Test systems include A549 NSCLC; HOP-92 NSCLC; UACC-257 melanoma; SR leukemia; SK-MEL-5 melanoma; COLO 205 colon; UACC-62 melanoma; ACHN renal; A498 renal; HL-60(TB) leukemia.
Assay in all cases: NCI-60 cell line screen, 48 h

For `Nc1ccc(COC(O)CN2CCCCC2)cc1[N+](=O)[O-]` (stereo not given), the TGI in the assay on A549 NSCLC, with HOP-92 NSCLC, with UACC-257 melanoma, with SR leukemia, in the assay on SK-MEL-5 melanoma and in the assay with COLO 205 colon was over 100 µM each time. Further, the TGI with UACC-62 melanoma, in the assay with ACHN renal, in the assay on A498 renal and in the assay on HL-60(TB) leukemia was over 100 µM throughout.
For the compound `C=C1SC(=Nc2ccccc2Cl)N(C(=O)c2sc3ccccc3c2Cl)C12CCCCC2`, the GI50 in the assay with A549 NSCLC is 4.31 µM; in the assay on HOP-92 NSCLC, 2.01 µM; in the assay with UACC-257 melanoma it was 23.6 µM; in the assay on SR leukemia it was 8.54 µM; with SK-MEL-5 melanoma it was 8.2 µM; in the assay with COLO 205 colon it was 8.5 µM. Also, the GI50 was 22.8 µM in the assay with UACC-62 melanoma, 4.89 µM with ACHN renal, 2.77 µM with A498 renal and 6.63 µM in the assay with HL-60(TB) leukemia. Also, the TGI is over 100 µM in the assay with A549 NSCLC; 9.31 µM in the assay with HOP-92 NSCLC; over 100 µM in the assay on UACC-257 melanoma; over 100 µM in the assay with SR leukemia; over 100 µM in the assay on SK-MEL-5 melanoma; 22.4 µM with COLO 205 colon. The TGI was over 100 µM with UACC-62 melanoma, over 100 µM in the assay on ACHN renal, 74.6 µM in the assay with A498 renal and 89.3 µM with HL-60(TB) leukemia.
`COC(=O)/C(C#N)=C(\N)C(Cl)(Cl)Cl`: the TGI was 12.7 µM in the assay with A549 NSCLC; 9.85 µM with HOP-92 NSCLC; 12.6 µM with UACC-257 melanoma; 5.37 µM with SR leukemia; 3.82 µM in the assay on SK-MEL-5 melanoma; 4.72 µM with COLO 205 colon. For the same compound, the TGI is 2.86 µM with UACC-62 melanoma, 6.6 µM in the assay with ACHN renal, 8.22 µM with A498 renal and 1.32 µM with HL-60(TB) leukemia.
For the compound `CC([C@H]1CC=C2C3CCC4=C[C@@H](N(C)C)CC[C@]4(C)C3CC[C@@]21C)N(C)C` (stereo not given in full), the GI50 in the assay on A549 NSCLC is 3.97 µM; in the assay with HOP-92 NSCLC, 3.66 µM; in the assay with UACC-257 melanoma it was 6.1 µM; with SR leukemia, 0.876 µM; in the assay with SK-MEL-5 melanoma, 1.35 µM; in the assay with COLO 205 colon it was 1.7 µM. For the same compound, the GI50 with UACC-62 melanoma is 1.75 µM; with ACHN renal, 4.07 µM; with A498 renal, 3.27 µM; in the assay on HL-60(TB) leukemia, 1.26 µM. In addition, the TGI is 11.1 µM in the assay with A549 NSCLC; 10.3 µM with HOP-92 NSCLC; 19.4 µM with UACC-257 melanoma; 4.19 µM in the assay on SR leukemia; 2.71 µM in the assay on SK-MEL-5 melanoma; 3.37 µM with COLO 205 colon. Besides, the TGI in the assay with UACC-62 melanoma was found to be 3.59 µM; in the assay with ACHN renal, 14.7 µM; in the assay on A498 renal, 13.9 µM; with HL-60(TB) leukemia, 3.66 µM.
On to `COc1ccc(C(=O)CC2=Nc3nnc(CCCCCCCc4nnc5n4C(=O)C(CC(=O)c4ccc(OC)cc4)=N5)n3C2=O)cc1`, for which the TGI in the assay on A549 NSCLC, with HOP-92 NSCLC, with UACC-257 melanoma, in the assay with SR leukemia, in the assay on SK-MEL-5 melanoma and with COLO 205 colon was over 100 µM in each case. The TGI in the assay with UACC-62 melanoma, in the assay with ACHN renal, with A498 renal and in the assay with HL-60(TB) leukemia was over 100 µM throughout.
For the compound `CC1CC(C)C2OC2(C)C[C@H](C)C(=O)NC(C)C(=O)N(C)[C@H](Cc2c(Br)[nH]c3ccccc23)C(=O)N[C@@H](c2ccc(O)cc2)CC(=O)O1` (stereo not given in full), the TGI is over 100 µM in the assay on A549 NSCLC; 0.638 µM with HOP-92 NSCLC; 13.3 µM in the assay on UACC-257 melanoma; over 100 µM in the assay with SR leukemia; 17.1 µM with SK-MEL-5 melanoma; 0.145 µM in the assay with COLO 205 colon. Besides, the TGI with UACC-62 melanoma came out at 14.4 µM; in the assay with ACHN renal, 27.2 µM; in the assay with A498 renal, 1.79 µM; in the assay with HL-60(TB) leukemia, 0.783 µM.
As for `C[C@H]1CNC(=O)c2cnn3ccc(nc23)N[C@H](C)c2cc(F)ccc2O1`, the GI50 in the assay with A549 NSCLC was 0.937 µM; in the assay on HOP-92 NSCLC, 0.184 µM; with UACC-257 melanoma, 6.45 µM; with SR leukemia, 0.05 µM; in the assay with SK-MEL-5 melanoma, 8.91 µM; with COLO 205 colon, 0.779 µM. Also, the GI50 was 2.32 µM in the assay with UACC-62 melanoma, 0.558 µM with ACHN renal, 0.216 µM in the assay with A498 renal and 4.66 µM in the assay with HL-60(TB) leukemia. In addition, the TGI in the assay on A549 NSCLC is 16.4 µM; in the assay on HOP-92 NSCLC it was 0.998 µM; in the assay on UACC-257 melanoma, over 94 µM; with SR leukemia, 19.2 µM; in the assay with SK-MEL-5 melanoma it was 32.3 µM; with COLO 205 colon, 4.33 µM. Moreover, the TGI in the assay with UACC-62 melanoma was 39 µM; with ACHN renal, 4.36 µM; in the assay on A498 renal, 0.886 µM; in the assay with HL-60(TB) leukemia, over 62.5 µM.
On to `NC(N)=NC(N)=NCCCc1ccco1`, for which the GI50 in the assay on A549 NSCLC was over 500 µM; with HOP-92 NSCLC it was 57.5 µM; in the assay on UACC-257 melanoma it was 19.2 µM; in the assay on SR leukemia, 19.6 µM; in the assay on SK-MEL-5 melanoma it was over 500 µM; in the assay on COLO 205 colon, over 500 µM. Also, the GI50 with UACC-62 melanoma is 37.8 µM; with ACHN renal, over 500 µM; in the assay with A498 renal, over 500 µM; in the assay with HL-60(TB) leukemia, 15.9 µM. Further, the TGI in the assay with A549 NSCLC is over 500 µM; in the assay with HOP-92 NSCLC it was 158 µM; with UACC-257 melanoma, 101 µM; in the assay with SR leukemia, 89.8 µM; with SK-MEL-5 melanoma, over 500 µM; with COLO 205 colon it was over 500 µM. Also, the TGI in the assay with UACC-62 melanoma is 111 µM; with ACHN renal it was over 500 µM; in the assay with A498 renal, over 500 µM; with HL-60(TB) leukemia it was 48.2 µM.
For the compound `C[C@H]1COCCN1c1cc(C2(S(=O)(=O)C3CC3)CC2)nc(-c2ccc(NC(=S)NCCO)cc2)n1`, the GI50 is 0.0782 µM in the assay on A549 NSCLC; under 0.01 µM in the assay on HOP-92 NSCLC; 0.0187 µM in the assay on UACC-257 melanoma; 0.0296 µM in the assay on SR leukemia; 0.0151 µM in the assay on SK-MEL-5 melanoma; 0.0172 µM in the assay on COLO 205 colon. The GI50 was under 0.01 µM with UACC-62 melanoma, 0.0705 µM in the assay with ACHN renal, under 0.01 µM with A498 renal and 0.702 µM with HL-60(TB) leukemia. In addition, the TGI with A549 NSCLC is 4.35 µM; in the assay with HOP-92 NSCLC, 0.0607 µM; in the assay with UACC-257 melanoma it was 0.32 µM; in the assay on SR leukemia, over 58.2 µM; with SK-MEL-5 melanoma, 0.147 µM; with COLO 205 colon, 10.4 µM. The TGI with UACC-62 melanoma is 0.0883 µM; with ACHN renal, over 100 µM; in the assay with A498 renal, under 0.0135 µM; in the assay with HL-60(TB) leukemia, 28.6 µM.
